Where two headings read alike, the source gives them in different places.
Key:
[1] = cited from earlier work
bacteriophage T1 = assay: Effect of ozone on bacteriophage T1 spotted on LB agar plates; format: cell-based; settings: spots of 10^9 to 10^6 pfu/mL; ozone 4 hours, peak less than 150 ppm; silver-coated mesh generator; DH5 E. coli overlay, 72 hours at room temperature
Experimental: In Experiment 2, the effect of ozone on bacteriophage T1 was studied. In the experiment, 2.5 μL of purified bacteriophage T1 was spotted in four quadrants of two LB agar plates—a test plate 610 and a control plate 620, shown in FIG. 6. The bacteriophage concentrations on each of the two plates were (clockwise from the spot in the upper right quadrant): 10^9 pfu/mL, 10^8 pfu/mL, 10^7 pfu/mL, and 10^6 pfu/mL.
The test plate 610 was placed in an incubator chamber containing both an ozone generator and an ozone degrader. The ozone generator included two ceramic plates surrounded substantially by a silver-coated metal mesh. The ozone generator was activated and the test plate 610 was treated with ozone for 4 hours. The ozone generator was then turned off, and the ozone degrader, formed of activated carbon filters, accelerated the conversion of ozone to oxygen. The peak ozone concentration level generated within the incubator chamber was less than 150 ppm ozone.
The control plate 620 was placed in a different incubator chamber and left untreated. After the ozone generation and degradation cycle completed in the incubator chamber containing the test plate 610, 1 mL of stationary DH5 E. coli bacteria and top agar were added to each plate and incubated at room temperature for 72 hours. The photograph 600 in FIG. 6 was taken immediately following this 72-hour period.

[2] = Ozone breakdown in enclosed cell culture chamber, monitored with calibrated ozone analyzer; format: physicochemical
Experimental: In Experiment 1, an 1800 mg/hour ozone generator was placed in a 5.5 cubic feet cell culture. The ozone level within the chamber was monitored using a calibrated ozone analyzer. Ozone measurements were captured every 10 seconds. The experimental results, as represented by ozone level over time, are provided in the line graph 500 of FIG. 5A. In test #1, represented by line 510, the ozone generator was run for 80 minutes and achieved a peak ozone concentration within the cell culture chamber of approximately 325 ppm. After the ozone generator was turned off, the ozone was left to break down naturally within the enclosed cell culture chamber. It took approximately 28 hours for the ozone to breakdown to 0.01 ppm ozone.
In tests #2 and #3, represented by lines 520 and 530, respectively, both the ozone generator and an ozone degrader were present in the cell culture chamber. The ozone degrader was formed of three activated carbon filters. With the ozone degrader present, the ozone generator was unable to achieve the peak ozone concentration seen in test #1. In tests #2 and #3, the ozone generator was run for 120 minutes and the concentration of ozone noticeably plateaued. The air within the cell culture chamber reached a peak ozone concentration of approximately 140-150 ppm ozone. […]

humans = settings: OSHA limit, per workday; cited from earlier work
[3] = system: E. coli K-12 cells (strain DH5); assay: Sterilization efficacy on LB agar plates loaded with E. coli, ozone generation and degradation cycle in cell culture chamber; format: cell-based; settings: test #2 dish; approx. 1.5×10^8 cells plated; ozone 120 minutes plus 15 minutes degradation; peak approx. 140-150 ppm ozone; plates incubated at 37° C. overnight
Experimental: In tests #2 and #3, represented by lines 520 and 530, respectively, both the ozone generator and an ozone degrader were present in the cell culture chamber. The ozone degrader was formed of three activated carbon filters. With the ozone degrader present, the ozone generator was unable to achieve the peak ozone concentration seen in test #1. In tests #2 and #3, the ozone generator was run for 120 minutes and the concentration of ozone noticeably plateaued. The air within the cell culture chamber reached a peak ozone concentration of approximately 140-150 ppm ozone. After the ozone generator was turned off, the ozone began to break down at an accelerated rate with the activated carbon filters present. In both tests #2 and #3, the ozone levels reached a level of 0.01 ppm ozone within 15 minutes.
While the peak ozone concentrations reached in tests #2 and #3 were noticeably lower than the peak ozone concentration of test #1, the ozone levels in tests #2 and #3 were at least sufficient to achieve sterilization. In each of tests #2 and #3, sterilization efficacy was measured with the assistance of LB agar plates loaded with E. coli bacteria. […] The quantity of E. coli present was then analyzed and a photograph of each plate was taken. […] In the test dish 550, a 100% E. coli kill rate was observed; no E. coli was detected.

For `O=[O+][O-]` [ozone], the half-life ([1]; in the air) is listed as 36 to 72 h, the half-life ([1]; in water) is listed as 0.13 to 0.5 h and the “survival of the T1-phage” value (bacteriophage T1) is listed as “negligible survival”. The “time for the ozone to breakdown to 0.01 ppm ozone” value ([2]; test #1, natural breakdown, no degrader, from peak approx. 325 ppm, 5.5 cubic feet chamber) was “approximately 28 hours”, the “time for ozone levels to reach 0.01 ppm ozone” value ([2]; tests #2 and #3, three activated carbon filters as ozone degrader, from peak approx. 140-150 ppm) was ≤ 15 min and the “acceptable ozone exposure in the workplace” value (humans) was “under 0.1 ppm”. The “E. coli kill rate” value [3] was 100%.

— patent publication US10980910B2, “Apparatus and methods for ozone generation and degradation” (Gene Therapy Systems, Inc., priority 2013, dated 2021)
